{"source": "patent US10189795B2", "about": "“Aryl amine substituted quinoxaline used as anticancer drugs” (priority 2014, dated 2019)", "key": {"NCI-1703": {"test_system": "NCI-1703", "assay": "cell viability of NCI-1703 cells, 1 and 10 uM of each erlotinib derivative, and IC50", "format": "cell-based", "conditions": "Homo sapiens"}, "NCI-H226": {"test_system": "NCI-H226", "assay": "cell viability of NCI-H226 cells, 1 and 10 uM", "format": "cell-based", "conditions": "Homo sapiens"}, "A549": {"test_system": "A549", "assay": "cell viability of A549 cells, 1 and 10 uM", "format": "cell-based", "conditions": "Homo sapiens"}, "H358": {"test_system": "H358", "assay": "cell viability of H358 cells, 1 and 10 uM", "format": "cell-based", "conditions": "Homo sapiens, NCI-H358"}, "H2170": {"test_system": "H2170", "assay": "cell viability of H2170 cells, 1 and 10 uM", "format": "cell-based", "conditions": "Homo sapiens, NCI-H2170"}, "H520": {"test_system": "H520", "assay": "cell viability of H520 cells, 1 and 10 uM", "format": "cell-based", "conditions": "Homo sapiens, NCI-H520"}, "SW900": {"test_system": "SW900", "assay": "cell viability of SW900 cells, 1 and 10 uM", "format": "cell-based", "conditions": "Homo sapiens"}, "BA (%), Table 5": {"assay": "BA (%), Table 5", "conditions": "in vivo"}, "SET-PP2Ac binding": {"target": "T1, SET-PP2Ac binding (Homo sapiens, UniProt Q01105)", "T1 construct": "His; purchased Genway (SET-His); Abnova (PP2Ac-GST) GWB-ATG319; H00005515", "T1 sequence (Q01105 1-277 isoform Q01105-2)": "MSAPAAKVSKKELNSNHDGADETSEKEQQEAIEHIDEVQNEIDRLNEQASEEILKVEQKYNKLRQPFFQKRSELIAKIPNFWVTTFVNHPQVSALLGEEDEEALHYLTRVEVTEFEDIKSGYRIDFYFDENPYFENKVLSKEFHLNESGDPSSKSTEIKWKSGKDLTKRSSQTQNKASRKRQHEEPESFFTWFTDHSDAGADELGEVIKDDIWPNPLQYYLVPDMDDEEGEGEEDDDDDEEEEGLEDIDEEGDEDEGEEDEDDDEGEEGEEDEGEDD", "assay": "disruption of SET-PP2Ac binding (surface plasmon resonance, co-IP)"}, "HA22T": {"test_system": "HA22T", "assay": "MTT cell viability, HA22T", "format": "cell-based", "conditions": "Homo sapiens, 48 h", "experimental": "(§1) The present invention compared the antitumor activities of an erlotinib derivative of the present invention, TD-52, and erlotinib on HCC cells. The present invention used MTT assay to evaluate cell viability after exposure to TD-52 or erlotinib for 48 h. […] To further evaluate the cell apoptosis induced by the treatments, all four cell lines were treated with TD-52 and erlotinib at the indicated concentration for 24 h and the percentages of sub-G1 cells were determined by flow cytometry (FIG. 1B)."}, "Hep3B": {"test_system": "Hep3B", "assay": "MTT cell viability, Hep3B", "format": "cell-based", "conditions": "Homo sapiens, 48 h", "experimental": "(§2) The Sk-Hep1, PLC/PRF/5 (PLC) and Hep3B cell lines were obtained from American Type Culture Collection (ATCC; Manassas, Va., USA). The Huh-7 HCC cell line was obtained from the Health Science Research Resources Bank (HSRRB; Osaka, Japan; JCRB0403). Cells were maintained in DMEM supplemented with 10% FBS in a 37° C. humidified incubator in an atmosphere of 5% CO^2 in air. Other cell lines, including non-small cell lung cancer cells e.g. H358, H460 and A549 and human squamous cell carcinoma cells e.g. NCI-1703, H2170, H520, SW900 and NCI—H226 all obtained from American Type Culture Collection (Manassas, Va.) were also provided for the assays describes below.\nas §1"}, "Sk-Hep1": {"test_system": "Sk-Hep1", "assay": "MTT cell viability, Sk-Hep1", "format": "cell-based", "conditions": "Homo sapiens, 48 h", "experimental": "as §2, §1"}}}
{"smiles": "C#Cc1cccc(Nc2nc3ccccc3nc2Nc2cccc(C#C)c2)c1", "note": "[TD52, N^2,N^3-bis(3-ethynylphenyl)quinoxaline-2,3-diamine]", "values": [{"measurement": "viability at 1 µM", "setting": "NCI-1703; 1 uM", "value": "84.7 ± 2.5", "unit": "%"}, {"measurement": "viability at 10 µM", "setting": "NCI-1703; 10 uM", "value": "10.1 ± 0.1", "unit": "%"}, {"measurement": "IC50", "setting": "NCI-1703; cell viability", "value": 3800, "unit": "nM"}, {"measurement": "viability at 1 µM", "setting": "NCI-H226; 1 uM", "value": "79.5 ± 6.9", "unit": "%"}, {"measurement": "viability at 10 µM", "setting": "NCI-H226; 10 uM", "value": "5.3 ± 0.1", "unit": "%"}, {"measurement": "viability at 1 µM", "setting": "A549; 1 uM", "value": "71.5 ± 6", "unit": "%"}, {"measurement": "viability at 10 µM", "setting": "A549; 10 uM", "value": "9.7 ± 0.9", "unit": "%"}, {"measurement": "viability at 1 µM", "setting": "H358; 1 uM", "value": "99.8 ± 3.8", "unit": "%"}, {"measurement": "viability at 10 µM", "setting": "H358; 10 uM", "value": "11.2 ± 0.7", "unit": "%"}, {"measurement": "viability at 1 µM", "setting": "H2170; 1 uM", "value": "100 ± 3.21", "unit": "%"}, {"measurement": "viability at 10 µM", "setting": "H2170; 10 uM", "value": "7.84 ± 9.49", "unit": "%"}, {"measurement": "viability at 1 µM", "setting": "H520; 1 uM", "value": "95.8 ± 1.26", "unit": "%"}, {"measurement": "viability at 10 µM", "setting": "H520; 10 uM", "value": "14 ± 0.14", "unit": "%"}, {"measurement": "viability at 1 µM", "setting": "SW900; 1 uM", "value": "107 ± 13.1", "unit": "%"}, {"measurement": "viability at 10 µM", "setting": "SW900; 10 uM", "value": "77.9 ± 11.3", "unit": "%"}, {"measurement": "BA (%)", "setting": "BA (%), Table 5", "value": 87, "unit": "%"}, {"measurement": "minimal concentration to disrupt SET-PP2Ac binding", "setting": "SET-PP2Ac binding", "value": "100 to 200", "unit": "nM"}, {"measurement": "IC50", "setting": "HA22T", "value": 900, "unit": "nM"}, {"measurement": "IC50", "setting": "Hep3B", "value": 900, "unit": "nM"}, {"measurement": "IC50", "setting": "Sk-Hep1", "value": 1200, "unit": "nM"}]}
